According to BindingDB's records for doi:10.1021/acs.jmedchem.5b00079 (Saarland University and Helmholtz Institute For …, 2015):

Molecular target: T1, Cytochrome P450 11B1, mitochondrial (Homo sapiens, UniProt P15538)
T1 sequence (P15538 whole entry): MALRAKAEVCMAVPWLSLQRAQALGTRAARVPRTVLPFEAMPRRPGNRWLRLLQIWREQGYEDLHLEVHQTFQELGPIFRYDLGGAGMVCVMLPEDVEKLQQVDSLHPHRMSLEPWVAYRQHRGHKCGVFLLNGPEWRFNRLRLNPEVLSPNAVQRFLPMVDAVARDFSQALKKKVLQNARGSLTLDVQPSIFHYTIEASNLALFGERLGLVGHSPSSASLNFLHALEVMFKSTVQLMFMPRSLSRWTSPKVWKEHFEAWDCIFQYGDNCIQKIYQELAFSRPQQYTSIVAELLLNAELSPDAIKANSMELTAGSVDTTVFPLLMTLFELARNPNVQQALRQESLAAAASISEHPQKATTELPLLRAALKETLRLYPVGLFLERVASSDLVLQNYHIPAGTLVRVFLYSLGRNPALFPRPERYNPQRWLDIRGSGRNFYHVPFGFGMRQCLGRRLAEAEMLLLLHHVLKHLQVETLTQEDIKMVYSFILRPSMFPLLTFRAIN
Assay: Inhibition of human CYP11B1 expressed in V79 MZh cells using [14C]-deoxycorticosterone substrate incubated for 6 hrs by HPTLC method

`Cc1nnc2n1-c1c(F)cc(-c3cncc(F)c3)cc1CC2` was tested. Which IC50 did it give?
Its IC50 is 29.5 µM.
